Measurements reported in patent publication US10294202B2, “Pyrrolidinones as herbicides” (FMC Corporation, priority 2013, dated 2019).

Legend:
[1] = system: sedge, umbrella; experiment: Test B flooded paddy test; format: in vivo, Cyperus difformis; settings: Flood, scale of 0 to 100 where 0 is no effect and 100 is complete control
Summary of the method: (§1)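 Treatment was made at the 2-leaf stage by dosing the standing floodwater, kept 3 cm above soil level for the whole test. Greenhouse exposure lasted 13 to 15 days. Response is a visual percent rating relative to controls, where a dash indicates no test result.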

[2] = system: morningglory; experiment: Test C pre-/postemergence herbicide test; format: in vivo, Ipomoea coccinea
Summary of the method: (§2)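 Pre- and postemergence greenhouse screen. Preemergence treatment went onto freshly planted seeds in loam–sand soil; postemergence treatment went onto plants 2 to 18 cm tall at the 1- to 4-leaf stage in sphagnum peat/vermiculite medium. Scoring at 13 to 15 days used a 0–100 control scale.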

[3] = system: soybean; experiment: Test C pre-/postemergence herbicide test; format: in vivo, Glycine max
Summary of the method: as §2

[4] = system: blackgrass; experiment: Test C pre-/postemergence herbicide test; format: in vivo, Alopecurus myosuroides; settings: for Blackgrass plant response rating: scale 0 to 100, 0 is no effect and 100 is complete control
Summary of the method: as §2

[5] = system: ragweed; experiment: Test C pre-/postemergence herbicide test; format: in vivo, Ambrosia elatior
Summary of the method: as §2

[6] = system: giant foxtail; experiment: Test A pre-/postemergence herbicide test; format: in vivo, Setaria faberii
Summary of the method: (§3)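 Visual injury ratings, 0 = no effect, 100 = complete control, taken ~10 days after treatment against untreated greenhouse controls. Preemergence: directed soil spray onto seeded loam/sand pots. Postemergence: spray onto plants at one- to two-leaf stage, 2–10 cm tall.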

[7] = system: rice; experiment: Test B flooded paddy test; format: in vivo, Oryza sativa; settings: Flood, scale of 0 to 100 where 0 is no effect and 100 is complete control
Summary of the method: as §1

[8] = system: barnyardgrass; experiment: Test B flooded paddy test; format: in vivo, Echinochloa crus-galli; settings: Flood, scale of 0 to 100 where 0 is no effect and 100 is complete control
Summary of the method: as §1

[9] = system: barnyardgrass; experiment: Test C pre-/postemergence herbicide test; format: in vivo, Echinochloa crus-galli; settings: for Barnyardgrass plant response rating: scale 0 to 100, 0 is no effect and 100 is complete control
Summary of the method: as §2

[10] = system: corn; experiment: Test A pre-/postemergence herbicide test; format: in vivo, Zea mays
Summary of the method: as §3

[11] = system: crabgrass, large; experiment: Test C pre-/postemergence herbicide test; format: in vivo, Digitaria sanguinalis
Summary of the method: as §2

[12] = system: barnyardgrass; experiment: Test A pre-/postemergence herbicide test; format: in vivo, Echinochloa crus-galli
Summary of the method: as §3

[13] = system: ducksalad; experiment: Test B flooded paddy test; format: in vivo, Heteranthera limosa; settings: Flood, scale of 0 to 100 where 0 is no effect and 100 is complete control
Summary of the method: as §1

[14] = Postemergence, 31 g ai/ha, scale 0 to 100 (0 no effect, 100 complete control)
[15] = Postemergence, 62 g ai/ha, scale 0 (no effect) to 100 (complete control)
[16] = Postemergence, 125 g ai/ha, scale 0 to 100 (0 no effect, 100 complete control)
[17] = Postemergence, 250 g ai/ha, scale 0 to 100 (0 no effect, 100 complete control)
[18] = Preemergence, 31 g ai/ha, scale 0 to 100, 0 is no effect and 100 is complete control
[19] = Preemergence, 62 g ai/ha, scale 0 to 100 (0 no effect, 100 complete control)
[20] = Preemergence, 125 g ai/ha, scale 0 to 100 (0 no effect, 100 complete control)
[21] = Preemergence, 62 g ai/ha, scale 0 to 100
[22] = 125 g ai/ha, visual rating, 0 to 100 scale, 0 no effect, 100 complete control, approximately 10 days, preemergence
[23] = Postemergence, 125 g ai/ha, 0 to 100 scale, 0 is no effect, 100 is complete control
[24] = preemergence, 500 g ai/ha, 0 to 100 scale, 0 is no effect and 100 is complete control
[25] = Postemergence, 31 g ai/ha, scale 0 (no effect) to 100 (complete control)
[26] = Postemergence, 62 g ai/ha, scale 0 to 100 (0 no effect, 100 complete control)
[27] = Postemergence, 125 g ai/ha, 0 to 100 scale, 0 no effect, 100 complete control
[28] = Postemergence, 500 g ai/ha, 0 to 100 scale (0 no effect, 100 complete control)
[29] = Preemergence, 125 g ai/ha, visual rating on 0 to 100 scale (0 no effect, 100 complete control)
[30] = preemergence, 500 g ai/ha, 0 to 100 scale

O=C1NCC(c2cccc(OC(F)F)c2)C1C(=O)Nc1ccccc1F (centres unmarked) [Compound 223]
Plant response rating, Sedge, Umbrella ([1]; 500 g ai/ha): 0 | Plant response rating, Morningglory [2, 14]: 0 | Plant response rating, Morningglory [2, 15]: 0 | Plant response rating, Morningglory [2, 16]: 0 | Plant response rating, Morningglory [2, 17]: 35 | Morningglory plant response rating [2, 18]: 0 | Morningglory plant response rating [2, 19]: 0 | Plant response rating, Morningglory [2, 20]: 10 | Plant response rating (scale of 0 to 100), Morningglory ([2]; Preemergence, 250 g ai/ha): 20 | Plant response rating, Soybean [3, 14]: 10 | Plant response rating, Soybean [3, 15]: 0 | Plant response rating, Soybean [3, 16]: 0 | Plant response rating, Soybean [3, 17]: 30 | Soybean plant response rating [3, 18]: 0 | Soybean plant response rating [3, 19]: 5 | Plant response rating, Soybean [3, 20]: 5 | Plant response rating (scale of 0 to 100), Soybean ([3]; Preemergence, 250 g ai/ha): 15 | Plant response rating, Blackgrass [4, 14]: 0 | Plant response rating, Blackgrass [4, 15]: 0 | Plant response rating, Blackgrass [4, 16]: 0 | Plant response rating, Blackgrass [4, 17]: 0 | Blackgrass plant response rating ([4]; Preemergence, 31 g ai/ha): 35 | Plant response rating, Blackgrass [4, 21]: 35 | Plant response rating, Blackgrass [4, 20]: 85 | Plant response rating (scale of 0 to 100), Blackgrass ([4]; Preemergence, 250 g ai/ha): 85 | Plant response rating, Ragweed [5, 14]: 0 | Plant response rating, Ragweed [5, 15]: 0 | Plant response rating, Ragweed [5, 16]: 35 | Plant response rating, Ragweed [5, 17]: 35 | Ragweed plant response rating [5, 18]: 0 | Ragweed plant response rating [5, 19]: 0 | Plant response rating, Ragweed [5, 20]: 10 | Plant response rating (scale of 0 to 100), Ragweed ([5]; Preemergence, 250 g ai/ha): 25 | Plant response rating, Foxtail, Giant [6, 22]: 90 | Plant response rating, Foxtail, Giant [6, 23]: 80 | Foxtail, Giant plant response rating (0 to 100 scale, 0 is no effect, 100 is complete control) ([6]; Postemergence, 500 g ai/ha): 90 | Plant response rating, Foxtail, Giant [6, 24]: 90 | Plant response rating, Rice ([7]; 500 g ai/ha): 0 | Plant response rating, Barnyardgrass ([8]; 500 g ai/ha): 75 | Plant response rating, Barnyardgrass [9, 14]: 0 | Plant response rating, Barnyardgrass [9, 15]: 0 | Plant response rating, Barnyardgrass [9, 16]: 45 | Plant response rating, Barnyardgrass [9, 17]: 60 | Barnyardgrass plant response rating ([9]; Preemergence, 31 g ai/ha): 65 | Plant response rating, Barnyardgrass [9, 21]: 85 | Plant response rating, Barnyardgrass [9, 20]: 90 | Plant response rating (scale of 0 to 100; 0 is no effect, 100 is complete control), Barnyardgrass ([9]; Preemergence, 250 g ai/ha): 95 | Plant response rating, Corn [10, 23]: 0 | Corn plant response rating (0 to 100 scale, 0 is no effect, 100 is complete control) ([10]; Postemergence, 500 g ai/ha): 50 | Plant response rating, Crabgrass, Large [11, 14]: 0 | Plant response rating, Crabgrass, Large [11, 15]: 10 | Plant response rating, Crabgrass, Large [11, 16]: 55 | Plant response rating, Crabgrass, Large [11, 17]: 80 | Crabgrass, Large plant response rating [11, 18]: 85 | Crabgrass, Large plant response rating [11, 19]: 90 | Plant response rating, Crabgrass, Large [11, 20]: 95 | Plant response rating (scale of 0 to 100), Crabgrass, Large ([11]; Preemergence, 250 g ai/ha): 100 | Plant response rating, Barnyardgrass [12, 22]: 90 | Plant response rating, Barnyardgrass [12, 23]: 80 | Barnyardgrass plant response rating (0 to 100 scale, 0 is no effect, 100 is complete control) ([12]; Postemergence, 500 g ai/ha): 80 | Plant response rating, Barnyardgrass [12, 24]: 90 | Plant response rating, Ducksalad ([13]; 500 g ai/ha): 100

O=C1NCC(c2ccc(F)c(C(F)(F)F)c2)C1C(=O)Nc1ccccc1F (racemic) [Compound 76]
Plant response rating, Sedge, Umbrella ([1]; 250 g ai/ha): 0 | Plant response rating, Morningglory [2, 25]: 10 | Plant response rating, Morningglory [2, 26]: 10 | Plant response rating, Morningglory [2, 16]: 40 | Plant response rating, Morningglory [2, 17]: 40 | Morningglory plant response rating [2, 18]: 0 | Plant response rating, Morningglory [2, 21]: 0 | Plant response rating, Morningglory [2, 20]: 40 | Plant response rating (scale of 0 to 100), Morningglory ([2]; Preemergence, 250 g ai/ha): 40 | Plant response rating, Soybean [3, 25]: 0 | Plant response rating, Soybean [3, 26]: 0 | Plant response rating, Soybean [3, 16]: 5 | Plant response rating, Soybean [3, 17]: 10 | Soybean plant response rating [3, 18]: 0 | Plant response rating, Soybean [3, 21]: 0 | Plant response rating, Soybean [3, 20]: 0 | Plant response rating (scale of 0 to 100), Soybean ([3]; Preemergence, 250 g ai/ha): 0 | Plant response rating, Blackgrass [4, 25]: 0 | Plant response rating, Blackgrass [4, 26]: 0 | Plant response rating, Blackgrass [4, 16]: 0 | Plant response rating, Blackgrass [4, 17]: 10 | Blackgrass plant response rating ([4]; Preemergence, 31 g ai/ha): 50 | Plant response rating, Blackgrass [4, 21]: 50 | Plant response rating, Blackgrass [4, 20]: 80 | Plant response rating (scale of 0 to 100), Blackgrass ([4]; Preemergence, 250 g ai/ha): 80 | Plant response rating, Ragweed [5, 25]: 25 | Plant response rating, Ragweed [5, 26]: 40 | Plant response rating, Ragweed [5, 16]: 40 | Plant response rating, Ragweed [5, 17]: 55 | Plant response rating, Foxtail, Giant [6, 27]: 80 | Plant response rating, Foxtail, Giant [6, 28]: 80 | Foxtail, Giant plant response rating [6, 29]: 90 | Plant response rating, Foxtail, Giant [6, 30]: 90 | Plant response rating, Rice ([7]; 250 g ai/ha): 0 | Plant response rating, Barnyardgrass ([8]; 250 g ai/ha): 0 | Plant response rating, Barnyardgrass [9, 25]: 0 | Plant response rating, Barnyardgrass [9, 26]: 35 | Plant response rating, Barnyardgrass [9, 16]: 85 | Plant response rating, Barnyardgrass [9, 17]: 90 | Barnyardgrass plant response rating ([9]; Preemergence, 31 g ai/ha): 80 | Plant response rating, Barnyardgrass [9, 21]: 85 | Plant response rating, Barnyardgrass [9, 20]: 95 | Plant response rating (scale of 0 to 100; 0 is no effect, 100 is complete control), Barnyardgrass ([9]; Preemergence, 250 g ai/ha): 98 | Plant response rating, Corn [10, 27]: 40 | Plant response rating, Corn [10, 28]: 70 | Corn plant response rating [10, 29]: 0 | Plant response rating, Corn [10, 30]: 40 | Plant response rating, Crabgrass, Large [11, 25]: 0 | Plant response rating, Crabgrass, Large [11, 26]: 50 | Plant response rating, Crabgrass, Large [11, 16]: 70 | Plant response rating, Crabgrass, Large [11, 17]: 75 | Crabgrass, Large plant response rating [11, 18]: 98 | Plant response rating, Crabgrass, Large [11, 21]: 98 | Plant response rating, Crabgrass, Large [11, 20]: 100 | Plant response rating (scale of 0 to 100), Crabgrass, Large ([11]; Preemergence, 250 g ai/ha): 100 | Plant response rating, Barnyardgrass [12, 27]: 80 | Plant response rating, Barnyardgrass [12, 28]: 90 | Barnyardgrass plant response rating [12, 29]: 80 | Plant response rating, Barnyardgrass ([12]; preemergence, 500 g ai/ha, 0 to 100 scale (0 no effect, 100 complete control)): 80 | Plant response rating, Ducksalad ([13]; 250 g ai/ha): 90
